Measured values as given in patent publication US10189881B2, “MPS peptides and use thereof” (The Regents of the University of California, priority 2013, dated 2019).

Legend:
[1] = system: MARCKS phosphorylation (Ser159/163); test: Western blot of MARCKS phosphorylation in peptide-treated cells; type: cell-based, human; conditions: alanine-substituted peptide
Description: The levels of MARCKS phosphorylation in chemoresistant cancer cell lines after 24 hours of MPS or mutant (Mut) peptide treatment. Lysates form 100 μM MPS-or Mut peptide-treated H1650 or H1975cells were subjected to immunoblotting. The sequences of MARCKS MPS peptide consisted of amino acids 152 to 176 from the wild-type protein (SEQ ID NO: 9). The sequences of mutated MPS peptide (Mut) (SEQ ID NO: 14) had the replacement of serine residues (S) by aspartate (D) and are unable to be recognized by PKC. The underline represents the PIP2 binding site.
FIGS. 13A-13G show MPS peptide suppresses cancer cell proliferation and also induces apoptosis in these cells through direct downregulation of MARCKS activation. (A) Determination of MARCKS phosphorylation levels after 24 hours of MPS peptide treatment. Lysates from 1-100 μM MPS peptide-treated H1975 cells were subjected to western blot analysis. (B) Levels of PIP3 in drug resistant cancer cell lines after MPS peptide treatment. Cells were treated with 10, 50 or 100 μM MPS peptide. After 24 hours of treatment, PIP3 lipids were extracted from these cells and analyzed by a PIP3 ELISA kit. *P<0.05 compared with untreated cells. (C) Downregulation of AKT phosphorylation by MPS peptide treatment, but not by Mut peptide. Cells were treated with 100 μM MPS or Mut peptide for 24 hours. Lysates were immunoblotted with the indicated antibodies. (D) Cell viability analysis of six cancer cell lines and human bronchial epithelial cells (HBE1) upon MPS treatment. Cells were incubated with various concentrations of MPS peptide for 72 hours and then subjected to MTS assays. Polylysine served as a peptide control. n=4, *P<0.05 compared with untreated cells (Con). (E) Cells were treated with the indicated concentrations of MPS peptide and colonies were counted after 10 days of treatment using crystal violet staining (F) MPS treatment augments cell death. […] The percentages of apoptotic cells were quantified by flow cytometry (top), and presented as mean±SD of three experiments (bottom). *, P<0.05 versus untreated cells (Con). […]

CL1-0 cells = test: NBD-labeled peptide binding to live cells (confocal microscopy); type: cell-based, human; conditions: NBD-labeled peptides; b53 versus D-Mut, b70 versus SEQ ID NO: 9
Text: FIGS. 28A-28C show MPS peptide binding to live cells. (A) Peptide sequences showing substitution of serine residues in MPS peptide (SEQ ID NO: 9). The serine residues of MPS peptide were replaced either by adding 4 aspartic acids (SEQ ID NO: 14), which are negatively charged and result in making the final peptide less positive, or by adding 4 alanines (SEQ ID NO: 10), which increased membrane affinity. Both the MPS and alanines-substituted (A-Mut) MPS peptides are highly positive charged and interact electrostatically with PIP2 on the phospholipid membrane. In contrast, electrostatic interaction with cell membrane is decreased in aspartates-substituted (D-Mut) MPS peptide (Gambhir, A. et al. (2004) Biophys. J. 86:2188-2207; Rusu, L. et al. (2004) Biophys J. 87:1044-1053; Glaser, M. et al. (1996) J. Biol. Chem. 271:26187-26193; Ellena, J.F. et al. (2003) Biophys. J. 85:2442-2448; McLaughlin, S. et al. (2005) Nature 438:605-611). Figure discloses “MH” domain as SEQ ID NO: 42. […] MPS peptide, D-Mut, and A-Mut MPS peptide were labeled with NBD (4-Chloro-7-Nitrobenz-2-Oxa-1,3-Diazole) dye. After purification of peptides, CL1-0 cells were treated with various NBD-labeled peptides and then subjected to DAPI staining. The NBD-labeled peptide (green) and nucleus counter-stain (blue) were visualized via confocal laser-scanning microscopy. […]

cancer cells = test: Anti-cancer activity of alanine-substituted MPS (method not given)

## KKKKKRFAFKKAFKLAGFAFKKNKK [SEQ ID NO: 10, alanines-substituted MPS peptide]
[1]
  Phospho-MARCKS levels in cancer cells: reduce phospho-MARCKS levels
CL1-0 cells
  Peptide-cell interaction: greater peptide-cell interaction
Cancer cells
  Anti-cancer activity compared to MPS peptide of SEQ ID NO: 9: better anti-cancer activity
